From ChEMBL document CHEMBL1153466, “Isoplatensimycin: Synthesis and biological evaluation” (2009)
Converted amounts (≈) assume the structure as drawn.

How the values were obtained:
Type in all cases: functional
Staphylococcus aureus [1] = assay: Antimicrobial activity against methicillin-susceptible Staphylococcus aureus isolate 1
Staphylococcus aureus [2] = assay: Antimicrobial activity against methicillin-susceptible Staphylococcus aureus isolate 2
Staphylococcus aureus [3] = assay: Antimicrobial activity against methicillin-susceptible Staphylococcus aureus isolate 3
Staphylococcus aureus [4] = assay: Antimicrobial activity against methicillin-susceptible Staphylococcus aureus isolate 4
Staphylococcus aureus [5] = assay: Antimicrobial activity against methicillin-resistant Staphylococcus aureus isolate 5
Staphylococcus aureus [6] = assay: Antimicrobial activity against methicillin-resistant Staphylococcus aureus isolate 6
Staphylococcus aureus [7] = assay: Antimicrobial activity against methicillin-resistant Staphylococcus aureus isolate 7
Staphylococcus aureus [8] = assay: Antimicrobial activity against methicillin-resistant Staphylococcus aureus isolate 8
Staphylococcus aureus [9] = assay: Antimicrobial activity against vancomycin-intermediate Staphylococcus aureus isolate 9
Staphylococcus aureus [10] = assay: Antimicrobial activity against vancomycin-intermediate Staphylococcus aureus isolate 10
Staphylococcus aureus [11] = assay: Antimicrobial activity against vancomycin-susceptible Staphylococcus aureus isolate 11
Staphylococcus aureus [12] = assay: Antimicrobial activity against vancomycin-resistant Staphylococcus aureus isolate 12
Staphylococcus aureus [13] = assay: Antimicrobial activity against vancomycin-resistant Staphylococcus aureus isolate 13
Staphylococcus aureus [14] = assay: Antimicrobial activity against vancomycin-resistant Staphylococcus aureus isolate 14
Staphylococcus aureus [15] = assay: Antimicrobial activity against vancomycin-resistant Staphylococcus aureus isolate 15

Row | Structure (SMILES) | MIC (Staphylococcus aureus [1]) [µg/mL] | MIC (Staphylococcus aureus [2]) [µg/mL] | MIC (Staphylococcus aureus [3]) [µg/mL] | MIC (Staphylococcus aureus [4]) [µg/mL] | MIC (Staphylococcus aureus [5]) [µg/mL] | MIC (Staphylococcus aureus [6]) [µg/mL] | MIC (Staphylococcus aureus [7]) [µg/mL] | MIC (Staphylococcus aureus [8]) [µg/mL] | MIC (Staphylococcus aureus [9]) [µg/mL] | MIC (Staphylococcus aureus [10]) [µg/mL] | MIC (Staphylococcus aureus [11]) [µg/mL] | MIC (Staphylococcus aureus [12]) [µg/mL] | MIC (Staphylococcus aureus [13]) [µg/mL] | MIC (Staphylococcus aureus [14]) [µg/mL] | MIC (Staphylococcus aureus [15]) [µg/mL]
1 | CC12C[C@@]34C=CC(=O)[C@@](C)(CCC(=O)Nc5c(O)ccc(C(=O)O)c5O)C3[C@H](CC1C4)O2 (mixture of isomers) [PLATENSIMYCIN] | 4 | 64 | 128 | 2 | 4 | 4 | 16 | 4 | 4 | 4 | 2 | 1 | 1 | 0.5 | 0.5
2 | CC12CC3CC4(C=CC(=O)C(C)(CCC(=O)Nc5c(O)ccc(C(=O)O)c5O)C4C3O1)C2 (racemic) [ISOPLATENSIMYCIN] | 128 (≈ 290 µM) | > 128 | > 128 | 128 (≈ 290 µM) | > 128 | > 128 | > 128 | > 128 | > 128 | > 128 | 16 (≈ 36.2 µM) | 64 (≈ 145 µM) | 32 (≈ 72.5 µM) | 2 (≈ 4.53 µM) | 4 (≈ 9.06 µM)
3 | Cc1onc(-c2ccccc2)c1C(=O)N[C@@H]1C(=O)N2[C@@H]1SC(C)(C)[C@@H]2C(=O)O [OXACILLIN] | 0.125 (≈ 0.311 µM) | 0.5 (≈ 1.25 µM) | 0.125 (≈ 0.311 µM) | 0.5 (≈ 1.25 µM) | > 128 | > 128 | 16 (≈ 39.9 µM) | > 128 | > 128 | > 128 |  |  |  |  | 
4 | CN[C@H](CC(C)C)C(=O)N[C@H]1C(=O)N[C@@H](CC(N)=O)C(=O)N[C@H]2C(=O)N[C@H]3C(=O)N[C@H](C(=O)N[C@H](C(=O)O)c4cc(O)cc(O)c4-c4cc3ccc4O)[C@H](O)c3ccc(c(Cl)c3)Oc3cc2cc(c3O[C@@H]2O[C@H](CO)[C@@H](O)[C@H](O)[C@H]2O[C@H]2C[C@](C)(N)[C@H](O)[C@H](C)O2)Oc2ccc(cc2Cl)[C@H]1O [VANCOMYCIN] |  |  |  |  |  |  |  |  |  |  |  | 32 (≈ 22.1 µM) | 128 (≈ 88.3 µM) | > 128 | > 128
